Patent US12552771B2, “Carboxylic acid containing azetidinyl compounds for the treatment of neurodegenerative diseases” (Celgene Corporation, priority 2021, dated 2026)
pEC50: −log10 of the molar value.

Biological target: T1, S1P5 receptors (Homo sapiens, UniProt Q9H228)
T1 construct: expressed in transfected cells; host or cells: CHO cells (membranes)
Experiment: [35S]-GTPγS binding assay with CHO-S1P5 receptor membranes
Type: biochemical
Conditions: membranes of CHO cells expressing recombinant S1P5 receptors; measure of S1P5 agonism
Experimental: CHO cells expressing recombinant S1P5 receptors were cultured in 500 cm^2 culture trays and, once confluent, rinsed and detached with cell-lifting buffer (10 mM HEPES, 154 mM NaCl, 6.85 mM EDTA, pH 7.4). Cells were then pelleted by centrifugation, resuspended, and homogenized in membrane preparation buffer (10 mM HEPES and 10 mM EDTA, pH 7.4) using a Polytron PT 1200E homogenizer (Kinematica, Luzern, Switzerland). Cellular proteins were pelleted by centrifugation at 48,000×g at 4° C. for 30 minutes. The resulting supernatant was discarded, and the pellet was re-suspended again in membrane preparation buffer, homogenized for a second time, and then centrifuged again as described above. The final cellular protein pellet was suspended in ice cold resuspension buffer (10 mM HEPES and 0.1 mM EDTA, pH 7.4), divided into aliquots, and stored at −80° C. until use.
Functional binding assays for [^35]-GTPγS were performed in 96-well non-binding surface plates with a final volume of 200 μL. The test compounds were serially diluted in DMSO and added to assay plates using a Tecan D300E digital printer with a total volume of […]. The control sphingosine-1-phosphate (SiP) was prepared separately by preparing a 400 μM stock solution from a 100 nmol pellet of SiP in 10 mM Na2CO3 with 2% […]. The serial dilution of SiP was done using complete assay buffer (20 mM HEPES, 10 mM MgCl2, 100 mM NaCl, 1 mM EDTA, 0.1% fatty acid free bovine serum albumin (BSA), and 30 μg/mL saponin, pH 7.4) and transferred to wells already containing 0.4 μL DMSO. All the wells were then loaded to a total volume of 40 μL of complete assay buffer, except the non-specific binding (NSB) wells. For NSB wells, 40 μL/well of 50 μM GTPγS (Sigma Aldrich, cat #G8634, St. Louis, MO) was added to wells containing 0.4 μL of DMSO. The assay was started by the addition of 120 μL/well of CHO-S1P receptor membrane solution containing 40 μg/mL of membrane protein, 16.67 μM guanosine diphosphate (GDP; Sigma Aldrich, cat #G7127, St. Louis, MO), and 2.5 mg/mL of WGA PVT SPA beads in complete buffer. Assay plates were then sealed and incubated at room temperature with gentle agitation for 30 minutes. Next, 40 μL/well of 1 nM of [^35]-GTPγS (PerkinElmer, cat #NEG030X250UC, Waltham, MA) in basic assay buffer (20 mM HEPES, 10 mM MgCl2, 100 mM NaCl, and 1 mM EDTA, pH7.4) was added to the assay plates to yield a final concentration of 200 pM and the plates were further incubated for 40 minutes at room temperature with gentle agitation. The assay was terminated by centrifugation of the plates at 1000 rpm for 3 minutes using an Eppendorf 5810R centrifuge (Eppendorf, Hamburg, Germany) and G protein bound radioactivity was quantitated using a MicroBeta2 microplate scintillation counter (PerkinElmer, Waltham, MA). As G protein bound radioactivity directly correlates to receptor activation and coupling to the G protein, this assay is a measure of S1P5 agonism.

T1 sequence (Q9H228 whole entry): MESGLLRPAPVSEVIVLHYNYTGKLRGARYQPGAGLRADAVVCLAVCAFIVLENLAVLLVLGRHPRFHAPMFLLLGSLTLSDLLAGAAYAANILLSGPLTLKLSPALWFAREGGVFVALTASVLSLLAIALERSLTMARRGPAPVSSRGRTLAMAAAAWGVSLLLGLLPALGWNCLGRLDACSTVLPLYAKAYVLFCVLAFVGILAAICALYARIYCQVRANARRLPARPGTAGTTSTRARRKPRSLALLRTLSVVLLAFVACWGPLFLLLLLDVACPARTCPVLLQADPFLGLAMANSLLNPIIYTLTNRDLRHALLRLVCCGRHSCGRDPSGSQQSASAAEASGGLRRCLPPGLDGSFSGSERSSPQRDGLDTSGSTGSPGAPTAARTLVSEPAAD

Row | SMILES | pEC50
1 | O=C(O)C1CCN(C2CCc3cc(C4CN(c5cccc(F)c5)C4)ccc32)CC1 (single isomer, unassigned) [Compound 3a, 1-(5-(1-(3-fluorophenyl)azetidin-3-yl)-2,3-dihydro-1H-inden-1-yl)piperidine-4-carboxylic acid] | 6.00 to 7.00
2 | Cc1cc(C2CN(c3cccc(F)c3)C2)cc(C)c1CN1CCC(C(=O)O)CC1 [Compound 47, 1-(4-(1-(3-fluorophenyl)azetidin-3-yl)-2,6-dimethylbenzyl)piperidine-4-carboxylic acid] | 6.00 to 7.00
3 | O=C(O)C1CCN(C2CCc3cc(C4CN(c5c(Cl)cccc5Cl)C4)cc(F)c32)CC1 (racemic) [Compound 6, 1-(5-(1-(2,6-dichlorophenyl)azetidin-3-yl)-7-fluoro-2,3-dihydro-1H-inden-1-yl)piperidine-4-carboxylic acid] | ≥ 8.00
4 | Cc1cc(N2CC(c3c(Cl)cccc3Cl)C2)c(C)cc1CN1CCC(C(=O)O)CC1 [Compound 30, 1-(4-(3-(2,6-dichlorophenyl)azetidin-1-yl)-2,5-dimethylbenzyl)piperidine-4-carboxylic acid] | ≥ 8.00
5 | Cc1cc(CN2CCC(C(=O)O)CC2)cc(C)c1N1CC(F)(c2c(Cl)cccc2Cl)C1 [Compound 36, 1-(4-(3-(2,6-dichlorophenyl)-3-fluoroazetidin-1-yl)-3,5-dimethylbenzyl)-piperidine-4-carboxylic acid] | 7.00 to 8.00
6 | O=C(O)[C@@H]1CCN(Cc2ccc(C3CN(c4c(Cl)cccc4Cl)C3)cc2)C1 [Compound 12b, (R)-1-(4-(1-(2,6-dichlorophenyl)azetidin-3-yl)benzyl)pyrrolidine-3-carboxylic acid] | ≥ 8.00
7 | Cc1cc(N2CC(c3c(Cl)cccc3Cl)C2)cc(C)c1CN1CCC(C(=O)O)CC1 [Compound 28, 1-(4-(3-(2,6-dichlorophenyl)azetidin-1-yl)-2,6-dimethylbenzyl)piperidine-4-carboxylic acid] | ≥ 8.00
8 | O=C(O)C1CCN(Cc2ccc(C3CN(c4ccccc4)C3)cc2)CC1 [Compound 39, 1-(4-(1-phenylazetidin-3-yl)benzyl)piperidine-4-carboxylic acid] | 5.00 to 6.00
9 | Cc1cc(C2CN(c3c(Cl)cccc3Cl)C2)c(C)cc1CN1CCC(C(=O)O)CC1 [Compound 19, 1-(4-(1-(2,6-dichlorophenyl)azetidin-3-yl)-2,5-dimethylbenzyl)piperidine-4-carboxylic acid] | ≥ 8.00
10 | Cc1cc(C2CN(c3c(Cl)cccc3Cl)C2)cc(C)c1CN1CCC(C(=O)O)CC1 [Compound 15, 1-(4-(1-(2,6-dichlorophenyl)azetidin-3-yl)-2,6-dimethylbenzyl)piperidine-4-carboxylic acid] | ≥ 8.00
11 | O=C(O)C1CCN(Cc2ccc(N3CC(c4c(Cl)cccc4Cl)C3)cc2F)CC1 [Compound 33, 1-(4-(3-(2,6-dichlorophenyl)azetidin-1-yl)-2-fluorobenzyl)piperidine-4-carboxylic acid] | 7.00 to 8.00
12 | Cc1cc(C2CN(c3ccc(C4CC4)cc3)C2)cc(C)c1CN1CCC(C(=O)O)CC1 [Compound 48, 1-(4-(1-(4-cyclopropylphenyl)azetidin-3-yl)-2,6-dimethylbenzyl)piperidine-4-carboxylic acid] | 5.00 to 6.00
13 | O=C(O)C1CCN(C2CCc3cc(C4CN(c5ccccc5F)C4)ccc32)CC1 (single isomer, unassigned) [Compound 4a, 1-(5-(1-(2-fluorophenyl)azetidin-3-yl)-2,3-dihydro-1H-inden-1-yl)piperidine-4-carboxylic acid] | 7.00 to 8.00
14 | O=C(O)C1CCN(C2CCc3cc(C4CN(c5c(Cl)cccc5Cl)C4)ccc32)C1 (centres unmarked) [Compound 7, 1-(5-(1-(2,6-dichlorophenyl)azetidin-3-yl)-2,3-dihydro-1H-inden-1-yl)pyrrolidine-3-carboxylic acid] | ≥ 8.00
15 | O=C(O)C1CCN(C2CCc3cc(N4CC(c5ccccc5F)C4)ccc32)CC1 (single isomer, unassigned) [Compound 10b, 1-(5-(3-(2-fluorophenyl)azetidin-1-yl)-2,3-dihydro-1H-inden-1-yl)piperidine-4-carboxylic acid] | 5.00 to 6.00
16 | Cc1cc(N2CC(F)(c3c(Cl)cccc3Cl)C2)cc(C)c1CN1CCC(C(=O)O)CC1 [Compound 37, 1-(4-(3-(2,6-dichlorophenyl)-3-fluoroazetidin-1-yl)-2,6-dimethylbenzyl)-piperidine-4-carboxylic acid] | 7.00 to 8.00
17 | O=C(O)[C@H]1CCN(Cc2ccc(C3CN(c4c(Cl)cccc4Cl)C3)cc2)C1 [Compound 12a, (S)-1-(4-(1-(2,6-dichlorophenyl)azetidin-3-yl)benzyl)pyrrolidine-3-carboxylic acid] | 7.00 to 8.00
18 | O=C(O)C1CCN(C2CCc3cc(C4CN(c5c(F)cccc5F)C4)ccc32)CC1 (single isomer, unassigned) [Compound 2b, 1-(5-(1-(2,6-difluorophenyl)azetidin-3-yl)-2,3-dihydro-1H-inden-1-yl)-piperidine-4-carboxylic acid] | 5.00 to 6.00

More lines, now with the values ahead:

Row | pEC50 | SMILES
19 | ≥ 8.00 | Cc1cc(C2CN(c3c(Cl)cccc3Cl)C2)cc(F)c1CN1CCC(C(=O)O)CC1 [Compound 50, 1-(4-(1-(2,6-dichlorophenyl)azetidin-3-yl)-2-fluoro-6-methylbenzyl)-piperidine-4-carboxylic acid]
20 | 6.00 to 7.00 | Cc1cc(C2CN(c3c(Cl)cccc3Cl)C2)ncc1CN1CCC(C(=O)O)CC1 [Compound 78, 1-((6-(1-(2,6-dichlorophenyl)azetidin-3-yl)-4-methylpyridin-3-yl)methyl)-piperidine-4-carboxylic acid]
21 | ≥ 8.00 | Cc1cc(C2CN(c3c(Cl)cccc3Cl)C2)cc(C2CC2)c1CN1CCC(C(=O)O)CC1 [Compound 57, 1-(2-cyclopropyl-4-(1-(2,6-dichlorophenyl)azetidin-3-yl)-6-methylbenzyl)-piperidine-4-carboxylic acid]
22 | ≥ 8.00 | Cc1cc(C(C)(C)N2CCC(C(=O)O)CC2)cc(C)c1C1CN(c2c(Cl)cccc2Cl)C1 [Compound 86, 1-(2-(4-(1-(2,6-dichlorophenyl)azetidin-3-yl)-3,5-dimethylphenyl)propan-2-yl)piperidine-4-carboxylic acid]
23 | ≥ 8.00 | CCc1cc(C2CN(c3c(Cl)cccc3Cl)C2)cc(CC)c1CN1CCC(C(=O)O)CC1 [Compound 52, 1-(4-(1-(2,6-dichlorophenyl)azetidin-3-yl)-2,6-diethylbenzyl)piperidine-4-carboxylic acid]
24 | ≥ 8.00 | Cc1cc(C2CN(c3c(Cl)cccc3Cl)C2)cc(C)c1CN1CCC(C(=O)O)C(F)C1 (centres unmarked) [Compound 64, 1-(4-(1-(2,6-dichlorophenyl)azetidin-3-yl)-2,6-dimethylbenzyl)-3-fluoro-piperidine-4-carboxylic acid]
25 | ≥ 8.00 | CCc1cccc(CC)c1N1CC(c2cc(C)c(CN3CCC(C(=O)O)CC3)c(C)c2)C1 [Compound 69, 1-(4-(1-(2,6-diethylphenyl)azetidin-3-yl)-2,6-dimethylbenzyl)piperidine-4-carboxylic acid]
26 | ≥ 8.00 | Cc1cc(C2CN(c3c(Cl)cccc3Cl)C2)cc(C)c1CN1CC[C@H](C(=O)O)C1 [Compound 62, (S)-1-(4-(1-(2,6-dichlorophenyl)azetidin-3-yl)-2,6-dimethylbenzyl)-pyrrolidine-3-carboxylic acid]
27 | 7.00 to 8.00 | Cc1cc(C2CN(c3c(Cl)cccc3Cl)C2)cc(C)c1CN1CCC(C(=O)O)CC1(C)C (centres unmarked) [Compound 65, 1-(4-(1-(2,6-dichlorophenyl)azetidin-3-yl)-2,6-dimethylbenzyl)-2,2-dimethylpiperidine-4-carboxylic acid]
28 | ≥ 8.00 | Cc1cc(C2CN(c3c(Cl)cccc3Cl)C2)cc(Cl)c1CN1CCC(C(=O)O)CC1 [Compound 51, 1-(2-chloro-4-(1-(2,6-dichlorophenyl)azetidin-3-yl)-6-methylbenzyl)-piperidine-4-carboxylic acid]
29 | 6.00 to 7.00 | Cc1cc(C2CN(c3c(Cl)cccc3Cl)C2)c(C)nc1CN1CCC(C(=O)O)CC1 [Compound 82, 1-((5-(1-(2,6-dichlorophenyl)azetidin-3-yl)-3,6-dimethylpyridin-2-yl)-methyl)piperidine-4-carboxylic acid]
